The numbers were not newly measured in patent US6514531B1, “Controlled-release dosage forms comprising zolpidem or a salt thereof” (Sanofi-Synthelabo, priority 1998, dated 2003), which cites them from elsewhere.

Turning to `Cc1ccc(-c2nc3ccc(C)cn3c2CC(=O)N(C)C)cc1` [zolpidem], the “kinetics in the therapeutical dose range” value (between 5 and 10 mg in conventional forms) is listed as “linear kinetics”. Besides, the duration of action result (hypnotic action, oral, conventional forms) is reported as “up to 6 hours”.
